Patent US7999137B2, “Pesticide bi-phenyl-amidine derivatives” (Bayer Cropscience AG, priority 2006, dated 2011)

Experiment: logP by HPLC on reversed-phase column (C 18), EEC Directive 79/831 Annex V.A8
Assay type: physicochemical
Details: HPLC reversed-phase C 18; 40° C.; 0.1% aqueous formic acid and acetonitrile, linear gradient 10% to 90% acetonitrile
Method: Temperature: 40° C.; Mobile phases: 0.1% aqueous formic acid and acetonitrile; linear gradient from 10% acetonitrile to 90% acetonitrile.
Calibration was carried out using unbranched alkan-2-ones (comprising 3 to 16 carbon atoms) with known logP values (determination of the logP values by the retention times using linear interpolation between two successive alkanones).

Structure (SMILES)	log p (HCOOH)
CCN(C)C=Nc1ccc(-c2ccc(C(C)(C)C)cc2)cc1C(F)(F)F [Compound 2]	2.83
CCN(C)C=Nc1ccc(-c2ccc(F)c(Cl)c2)cc1Cl [Compound 3]	1.92
CCN(C)C=Nc1ccc(-c2ccc(F)c(Cl)c2)cc1C(F)(F)F [Compound 4]	2.36
CCN(C)C=Nc1ccc(-c2ccc(F)c(Cl)c2)cc1C [Compound 5]	2.00
CCN(C)C=Nc1ccc(-c2ccc(OC)c(OC)c2OC)cc1C(F)(F)F [Compound 11]	1.84
CCN(C)C=Nc1ccc(-c2ccc(OC)c(OC)c2OC)cc1F [Compound 12]	1.50
CCN(C)C=Nc1ccc(-c2ccc(F)cc2)cc1C(F)(F)F [Compound 14]	1.93
CCN(C)C=Nc1ccc(-c2ccc(Cl)c(C(F)(F)F)c2)cc1C [Compound 16]	2.28
CCN(C)C=Nc1cc(C)c(-c2ccc(Cl)c(C(F)(F)F)c2)cc1C [Compound 17]	2.40
CCN(C)C=Nc1ccc(-c2ccc(Cl)c(C(F)(F)F)c2)cc1F [Compound 20]	2.15
CCN(C)C=Nc1cc(C)c(-c2ccc(F)cc2)cc1C [Compound 22]	1.95
CCN(C)C=Nc1ccc(-c2ccc(C(F)(F)F)cc2)cc1Cl [Compound 24]	1.99
CCN(C)C=Nc1ccc(-c2ccc(C(F)(F)F)cc2)cc1C(F)(F)F [Compound 25]	2.54
CCN(C)C(S)=Nc1cc(C)c(-c2ccc(C(C)(C)C)cc2)cc1C [Compound 28]	4.58
CCN(C)C=Nc1ccc(-c2cc(OC)c(OC)c(OC)c2)cc1C [Compound 29]	1.56
CCN(C)C=Nc1ccc(-c2ccc(Cl)c(Cl)c2)cc1C [Compound 32]	2.21
CCN(C)C=Nc1ccc(-c2ccc(F)c(C)c2)cc1C [Compound 33]	2.04
CCN(C)C=Nc1ccc(-c2ccc(F)c(F)c2)cc1C [Compound 34]	1.89
CCN(C)C=Nc1ccc(-c2ccc(Oc3ccccc3)cc2)cc1C [Compound 35]	2.41

Structure (SMILES)	log p (HCOOH)
CCN(C)C=Nc1ccc(-c2ccc(OCc3ccccc3)cc2)cc1C [Compound 36]	2.46
CCN(C)C=Nc1ccc(-c2ccc(OC)c(OC)c2)cc1C [Compound 38]	1.49
CCN(C)C=Nc1cc(C)c(-c2cc(OC)c(OC)c(OC)c2)cc1C [Compound 39]	1.68
CCN(C)C=Nc1cc(C)c(-c2ccc(C=NOC)cc2)cc1C [Compound 40]	2.05
CCN(C)C=Nc1cc(C)c(-c2ccc(Cl)c(F)c2)cc1C [Compound 41]	2.32
CCN(C)C=Nc1cc(C)c(-c2ccc(F)c(F)c2F)cc1C [Compound 43]	2.32
CCN(C)C=Nc1cc(C)c(-c2ccc(Cl)c(Cl)c2)cc1C [Compound 44]	2.27
CCN(C)C=Nc1cc(C)c(-c2ccc(F)c(C)c2)cc1C [Compound 45]	2.08
CCN(C)C=Nc1cc(C)c(-c2ccc(F)c(F)c2)cc1C [Compound 46]	1.98
CCN(C)C=Nc1cc(C)c(-c2ccc(OCc3ccccc3)cc2)cc1C [Compound 48]	2.55
CCN(C)C=Nc1cc(C)c(-c2ccc(COC)cc2)cc1C [Compound 49]	1.76
CCc1cc(-c2cc(OC)c(OC)c(OC)c2)ccc1N=CN(C)CC [Compound 50]	1.69
CCN(C)C=Nc1ccc(-c2cc(OC)c(OC)c(OC)c2)cc1Cl [Compound 63]	1.58
CCN(C)C=Nc1ccc(-c2ccc(Cl)c(Cl)c2)cc1Cl [Compound 66]	2.25
CCN(C)C=Nc1ccc(-c2ccc(F)c(C)c2)cc1Cl [Compound 67]	2.10
CCN(C)C=Nc1ccc(-c2ccc(F)c(F)c2)cc1Cl [Compound 68]	1.83
CCN(C)C=Nc1ccc(-c2ccc(Cl)cc2Cl)cc1Cl [Compound 69]	2.32
CCN(C)C=Nc1ccc(-c2ccc(Oc3ccccc3)cc2)cc1Cl [Compound 71]	2.45

Other lines, results leading:

log p (HCOOH)	Structure (SMILES)
2.44	CCN(C)C=Nc1ccc(-c2ccc(C(C)(C)C)cc2)cc1Cl [Compound 1]
2.29	CCN(C)C=Nc1ccc(-c2ccc(C(C)(C)C)cc2)cc1F [Compound 6]
2.66	CCc1cc(-c2ccc(C(C)(C)C)cc2)ccc1N=CN(C)CC [Compound 7]
2.17	CCc1cc(-c2ccc(F)c(Cl)c2)ccc1N=CN(C)CC [Compound 10]
1.69	CCN(C)C=Nc1ccc(-c2ccc(F)cc2)cc1Cl [Compound 13]
1.50	CCN(C)C=Nc1ccc(-c2ccc(F)cc2)cc1F [Compound 15]
2.39	CCc1cc(-c2ccc(Cl)c(C(F)(F)F)c2)ccc1N=CN(C)CC [Compound 21]
1.79	CCc1cc(-c2ccc(F)cc2)ccc1N=CN(C)CC [Compound 23]
2.20	CCc1cc(-c2ccc(C(F)(F)F)cc2)ccc1N=CN(C)CC [Compound 27]
1.94	CCN(C)C=Nc1ccc(-c2ccc(C=NOC)cc2)cc1C [Compound 30]
2.02	CCN(C)C=Nc1ccc(-c2ccc(C(C)=NOC)cc2)cc1C [Compound 31]
1.59	CCN(C)C=Nc1ccc(-c2ccc(COC)cc2)cc1C [Compound 37]
2.24	CCN(C)C=Nc1cc(C)c(-c2ccc(C(C)=NOC)cc2)cc1C [Compound 42]
2.09	CCc1cc(-c2ccc(C=NOC)cc2)ccc1N=CN(C)CC [Compound 51]
2.31	CCc1cc(-c2ccc(Cl)c(F)c2)ccc1N=CN(C)CC [Compound 52]
2.19	CCc1cc(-c2ccc(C(C)=NOC)cc2)ccc1N=CN(C)CC [Compound 53]
1.98	CCc1cc(-c2ccc(F)c(C)c2)ccc1N=CN(C)CC [Compound 55]
2.00	CCc1cc(-c2ccc(F)c(F)c2)ccc1N=CN(C)CC [Compound 56]
2.26	CCc1cc(-c2ccc(Cl)cc2Cl)ccc1N=CN(C)CC [Compound 57]
1.90	CCc1cc(-c2ccc(OC)cc2)ccc1N=CN(C)CC [Compound 58]
2.32	CCc1cc(-c2ccc(Oc3ccccc3)cc2)ccc1N=CN(C)CC [Compound 59]
2.39	CCc1cc(-c2ccc(OCc3ccccc3)cc2)ccc1N=CN(C)CC [Compound 60]
1.67	CCc1cc(-c2ccc(COC)cc2)ccc1N=CN(C)CC [Compound 61]
1.68	CCc1cc(-c2ccc(OC)c(OC)c2)ccc1N=CN(C)CC [Compound 62]
1.87	CCN(C)C=Nc1ccc(-c2ccc(C=NOC)cc2)cc1Cl [Compound 64]
2.00	CCN(C)C=Nc1ccc(-c2ccc(C(C)=NOC)cc2)cc1Cl [Compound 65]
1.71	CCN(C)C=Nc1ccc(-c2ccc(OC)cc2)cc1Cl [Compound 70]

Same assay, conditions: reversed-phase HPLC column (C 18); HPLC reversed-phase C 18; 40° C.; 0.1% aqueous formic acid and acetonitrile, linear gradient 10% to 90% acetonitrile; read-out: log p (HCOOH)

chromatographic logP	Structure (SMILES)
2.67	CCN(C)/C=N/c1cc(C)c(-c2ccc(C(C)(C)C)cc2)cc1C [Compound 8, N′-(4′-tert-butyl-2,5-dimethylbiphenyl-4-yl)-N-ethyl-N-methylimidoformamide]

Same assay, conditions: reversed-phase HPLC column (C 18); pH 2.3; HPLC, 0.1% aqueous formic acid and acetonitrile, 40° C.; read-out: log P (pH 2.3)

chromatographic logP	Structure (SMILES)
2.67	CCN(C)/C=N/c1cc(C)c(-c2ccc(C(C)(C)C)cc2)cc1C [Compound 8, N′-(4′-tert-butyl-2,5-dimethylbiphenyl-4-yl)-N-ethyl-N-methylimidoformamide]
